{"source": "paper PMC11091220", "about": "“Metabolism-driven in vitro/in vivo disconnect of an oral ERɑ VHL-PROTAC” (Communications Biology, 2024)", "key": {"[1]": {"molecular_target": "T1, ERα (Homo sapiens, UniProt P03372)", "T1 construct": "endogenous in cells; host or cells: MCF7 (also MCF7 engineered to express Cas9)", "T1 sequence (P03372 1-595)": "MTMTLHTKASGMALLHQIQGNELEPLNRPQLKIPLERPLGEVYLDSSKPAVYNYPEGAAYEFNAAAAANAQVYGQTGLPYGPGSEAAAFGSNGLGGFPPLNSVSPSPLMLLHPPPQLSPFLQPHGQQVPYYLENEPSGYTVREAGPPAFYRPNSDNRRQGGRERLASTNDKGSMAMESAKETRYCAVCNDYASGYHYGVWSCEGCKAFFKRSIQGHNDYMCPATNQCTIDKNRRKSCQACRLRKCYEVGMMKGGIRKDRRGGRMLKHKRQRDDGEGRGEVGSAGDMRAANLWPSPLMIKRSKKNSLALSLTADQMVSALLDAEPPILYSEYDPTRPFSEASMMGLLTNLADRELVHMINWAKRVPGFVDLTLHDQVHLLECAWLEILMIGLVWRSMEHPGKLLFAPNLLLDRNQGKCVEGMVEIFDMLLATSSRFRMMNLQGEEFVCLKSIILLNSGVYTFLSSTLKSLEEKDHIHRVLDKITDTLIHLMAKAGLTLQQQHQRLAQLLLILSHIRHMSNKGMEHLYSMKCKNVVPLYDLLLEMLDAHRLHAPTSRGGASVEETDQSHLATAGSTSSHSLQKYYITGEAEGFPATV", "assay": "SILAC pulse-chase and mass spectrometry, ERα turnover in MCF7 cells", "type": "cell-based", "settings": "1 µM", "protocol": "MCF7 cells were grown for a minimum of 2 passages in SILAC media (Pierce, Thermo Scientific) containing ^13C6^15N4 arginine and ^13C6 lysine. The extent of stable isotope incorporation was determined by mass spectrometry. For the assay, cells were plated at 1.2 x 10^6 cells/well into 6-well TC-treated plates in media containing 5% double charcoal stripped FBS^13,C6^15N4 arginine and ^13C6^15N2 lysine for 24 hours. At time 0, the media containing isotopically heavy arginine and lysine was replaced with media containing unlabelled equivalents plus either AZ’6421, fulvestrant or DMSO control. […] Equal concentrations of timecourse lysates were mixed with an internal standard lysate derived from ^[…] lysine labelled MCF7 cells. ER protein was immunoprecipitated overnight at 4 °C with an ER antibody (Rabbit clone SP1, Thermo Scientific) and immobilised onto a U-bottomed Nunc MaxiSorp plate (Thermo Scientific). Wells were sequentially washed with each of the following; RIPA buffer, PBS and water. Samples were digested by addition of 30 μL well sequencing grade trypsin (Promega) in 50 mM ammonium bicarbonate at 37 °C for a minimum of 16 hours. The resultant peptide samples were acidified and analysed by selected reaction monitoring (SRM) mass spectrometry. Protein half-life was determined using the one-phase exponential decay function in GraphPad PRISM where Y = (Y0 - Plateau)*exp(-K*X) + Plateau."}, "[2]": {"molecular_target": "T1, ERα", "assay": "ERα degradation in a panel of ER+ cell lines (western blot)", "type": "cell-based", "settings": "100 nM; for ERa degradation vs vehicle: 48 h, listed as AZ'6421", "protocol": "Fig. 3 AZ’6421 potently degrades ERα and inhibits ER-regulated gene transcription. a MCF7 cells were treated with increasing concentrations of AZ’6421 for 24 h and probed for ERα by immunoblot analysis. b SILAC experiment to measure ERα peptide turnover in MCF7 cells. Cells cultured in the presence of heavy L-arginine were switched at time T = 0 to media containing light L-arginine plus 0.1% DMSO, 1 µM AZ’6421, or 1 µM fulvestrant. Cells were collected at the indicated timepoints and the proportion of heavy-labelled ERα assessed by mass spectrometry. % ERα heavy peptide is plotted relative to DMSO control. Data points show the mean of 3 independent experiments with points in bold representing the mean. c A panel of ER+ cells were treated with 100 nM AZ’6421 for 48 h. ERα was normalised to vinculin and expressed as % of vehicle control. Data points represent an independent experiment for each cell line, error bars indicate ± s.e.m. d Heatmap showing changes in mRNA expression of a panel of ER-regulated genes. MCF7 and CAMA1 cells were stimulated with 0.1 nM estradiol in the presence of DMSO, 100 nM fulvestrant (Fulv), 100 nM AZD9833, or 100 nM AZ’6421 for 24 hours. Data points show 3 independent experiments. e Growth inhibition curves for MCF7 and CAMA1 cells, treated with increasing concentrations of AZ’6421 for 6 days. Data points show 4–5 independent experiments, bold points represent the mean. TEXT PRINTED IN THE PICTURE: (c) no label printed: Mean % ER Degradation, MCF-7: 96; Mean % ER Degradation, CAMA-1: 92; Mean % ER Degradation, ZR75-1: 95; Mean % ER Degradation, MDA-MB-134: 99; Mean % ER Degradation, BT474: 83; Mean % ER Degradation, HCC1428: 92; Mean % ER Degradation, T47D: 87 DOUBTS OF THE COPYIST ABOUT THIS PICTURE: Panel c prints no substance label for the Mean % ER Degradation values, so the substance is left empty.\nCells were seeded into 12-well tissue culture-treated plates at 0.5 x 10^6 cells/well in phenol red-free RPMI containing 5% (v/v) charcoal-stripped FBS (F6765, Sigma) and left to adhere overnight. In experiments to detect agonism or for SILAC experiments, FBS was double stripped using activated charcoal. […] Expression levels of proteins were determined by standard western blotting techniques (BioRad 4%-12% Bis-Tris gels). Antibodies were diluted in 5% milk-PBS-Tween and protein levels were detected using Pierce WestDura chemiluminescent reagents followed by visualisation and quantification on a Syngene ChemiGenius Imager. Where blots were quantified, protein levels were normalised to beta-actin or vinculin control and expressed as % of vehicle control."}, "[3]": {"assay": "Experimental PSA (ePSA), chromatographic method", "type": "physicochemical"}}, "note": "Where “and” joins values, the source holds several entries; their conditions need not be identical. Identical values can stand only once."}
{"smiles": "Cc1ncsc1-c1ccc(CNC(=O)[C@@H]2C[C@@H](O)CN2C(=O)[C@@H](NC(=O)COCCCOCCCOc2cc(F)c([C@@H]3c4[nH]c5ccccc5c4C[C@@H](C)N3CC(C)(C)F)c(F)c2)C(C)(C)C)cc1", "note": "[Compound 5]", "values": [{"measurement": "% heavy (ERα heavy peptide)", "setting": "[1]; Time 0, MCF7", "value": 100.0, "unit": "%"}, {"measurement": "% heavy (ERα heavy peptide)", "setting": "[1]; Time 0.5, listed as AZ'6421", "value": "51.8% and 84.4% and 43.4%"}, {"measurement": "% heavy (ERα heavy peptide)", "setting": "[1]; Time 1, listed as AZ'6421", "value": "24.8% and 28.9% and 24.0%"}, {"measurement": "% heavy (ERα heavy peptide)", "setting": "[1]; Time 2, listed as AZ'6421", "value": "13.8% and 13.6% and 9.7%"}, {"measurement": "% heavy (ERα heavy peptide)", "setting": "[1]; Time 4, listed as AZ'6421", "value": "5.2% and 6.5% and 4.4%"}, {"measurement": "% heavy (ERα heavy peptide)", "setting": "[1]; Time 7, listed as AZ'6421", "value": "3.1% and 4.5% and 3.3%"}, {"measurement": "% heavy (ERα heavy peptide)", "setting": "[1]; Time 24, listed as AZ'6421", "value": "3.2% and 3.4% and 2.7%"}, {"measurement": "% heavy (ERα heavy peptide)", "setting": "[1]; Time 48, listed as AZ'6421", "value": "3.5% and 3.4% and 2.6%"}, {"measurement": "ERα protein abundance, % of the vehicle", "setting": "[2]; all cell lines tested", "value": "less than 20%"}, {"measurement": "ERa degradation vs vehicle", "setting": "[2]; BT474", "value": "4.37 and 5.82"}, {"measurement": "ERa degradation vs vehicle", "setting": "[2]; HCC1428", "value": "9.04 and 6.44"}, {"measurement": "ERa degradation vs vehicle", "setting": "[2]; MDA-MB-134", "value": "1.1 and 1.64"}, {"measurement": "EPSA", "setting": "[3]", "value": 98, "unit": "A^2"}]}
